Converted amounts (≈) assume the structure as drawn.
Legend:
[1] = test system: C. autoethanogenum strain with aldehyde::ferredoxin oxidoreductase (AOR) enzymes deleted; test: 3-HP challenge experiment, autotrophic growth in Schott bottles; format: cell-based, Clostridium autoethanogenum
Experimental: FIGS. 2A-2B show autotrophic growth of Clostridium autoethanogenum Δaor strain in the presence of different amounts of 3-hydroxypropionic acid (at 0, 0.2, 0.5, 1, 2, 5 and 10 g/L) in Schott bottles. FIG. 2A: Growth profile; FIG. 2B: Peak Biomass. Unc=Unchallenged; N=2; Error bar=S.D.
To study the toxicity of 3-HP on autotrophic growth of C. autoethanogenum, a 3-HP challenge experiment (at 0, 0.2, 0.5, 1, 2, 5 and 10 g/L) was conducted in Schott bottles with synthetic gas blend (50% CO, 10% H2, 30% CO2 and 10% N2) using a strain with aldehyde::ferredoxin oxidoreductase (AOR) enzymes deleted (FIG. 2). […] Unc=Unchallenged; N=2; Error bar=S.D.

Synechococcus elongatus = settings: Begemann et al. 2013; cited from earlier work

O=C(O)CCO [Strain 3-HP, 3-Hydroxypropionate]
effect on growth rate ([1]; 5 g/L 3-HP): reduced the growth rate
reduction of peak OD600 nm vs unchallenged culture ([1]; 5 g/L 3-HP, synthetic gas blend 50% CO, 10% H2, 30% CO2, 10% N2, N=2): 22%
effect on growth rate ([1]; 10 g/L 3-HP): more pronounced decrease in growth rate
decrease in peak OD600 nm vs unchallenged culture ([1]; 10 g/L 3-HP, synthetic gas blend 50% CO, 10% H2, 30% CO2, 10% N2, N=2): 40%
minimal inhibitory concentration (Synechococcus elongatus): 180 µg/mL (≈ 2000 µM)

Reference: US11788092B2, “Recombinant microorganisms and uses therefor” (LanzaTech, Inc., priority 2021, dated 2023)
